Assay results published in patent US20190262357A1, “PREVENTATIVE OR THERAPEUTIC AGENT FOR PULMONARY HY[…] CRUDE DRUG COMPONENT” (TOHOKU UNIVERSITY, priority 2016, published 2019).

System: pulmonary artery smooth muscle cells derived from patients with idiopathic pulmonary arterial hypertension (IPAH-PASMCs)
Assay: Suppression of proliferation of IPAH-PASMCs (MTT assay)
Type: cell-based, human
Details: 0.001-5 μM celastrol, 48 hours
Method: The ability of celastrol to suppress the proliferation of pulmonary artery smooth muscle cells from patients with pulmonary hypertension (IPAH-PASMCs) was assessed. Specifically, first, on day −1, 66 μl each of pulmonary artery smooth muscle cells derived from patients with idiopathic pulmonary arterial hypertension (IPAH-PASMCs) suspended in a 10% FBS medium (DMEM supplemented with 10% FBS) were seeded in a 96-well plate at 50,000 cells/ml. 24 Hours after the cell seeding (the time point was defined as day 0), 33 μl each of 0.003 μM, 0.03 μM, 0.3 μM, 3 μM, and 15 μM solutions of celastrol in 10% FBS containing 1% DMSO were added to the wells so that the final concentrations were 0.001 μM, 0.01 μM, 0.1 μM, 1 μM, and 5 μM, respectively. As a control, 33 μl of 10% FBS containing 1% DMSO was added in place of celastrol. On day 0 (immediately before the addition of celastrol), a cell viability was confirmed by performing MTT assay using CellTiter 96 (trademark) AQueous One Solution Cell Proliferation Assay (promega). Further, on day 2, i.e., 48 hours after the addition of celastrol, the MTT assay was performed again to observe a change in cell viability. Thus, a cell proliferation-suppressing effect was assessed.

CC1=C(O)C(=O)C=C2C1=CC=C1[C@@]2(C)CC[C@@]2(C)[C@@H]3C[C@](C)(C(=O)O)CC[C@]3(C)CC[C@]12C [celastrol, (2R,4aS,6aS,12bR,14aS,14bR)-10-hydroxy-2,4a,6a,9,12b,14a-hexamethyl-11-oxo-1,2,3,4,4a,5,6,6a,11,12b,13,14,14a,14b-tetradecahydropicene-2-carboxylic acid]
cell proliferation-suppressing effect: a cell proliferation-suppressing effect on pulmonary artery smooth muscle cells derived from patients with idiopathic pulmonary arterial hypertension was obtained
